Tests used:
[1] = at about pH 8; cited from earlier work
[2] = 3 tons pressure 1 min; strong grinding dry or with a drop of water, ethanol or isopropanol; 100° C. for 30 minutes; 1 week 100% relative humidity at room temperature
Protocol: The analysis of was performed on ARL (SCINTAG) powder X-Ray diffractometer model X'TRA equipped with a solid stage detector.
Scanning parameters: range: 2-40 degrees two-theta; scan mode: continuous scan; step size: 0.05°, and a rate of 3 deg/min.

[3] = wettability by contact angle measurement; format: physicochemical; details: water drops (2 μL) on pellet pressed at 2 t*cm^−2
Protocol: The wettability of the below compounds was determined by contact angle measurement. For this purpose, the substances were pressed (2 t*cm^−2) to a pellet. On each pellet were placed three water drops (2 μL) on three individual measurement points and the contact angle was measured with the apparatus OCA40 (DataPhysics Instruments) on two sides of the drop.

[4] = twelve weeks at 40° C. and 75% relative humidity

In the case of `C=CC(=O)N1CCC[C@@H](n2nc(-c3ccc(Oc4ccccc4)cc3)c3c(N)ncnc32)C1` [Ibrutinib free base form A, 1-[(3R)-3[4-Amino-3-(4-phenoxyphenyl)-1H-pyrazolo[3,4-d]pyrimidin-1-yl]piperidin-1-yl]prop-2-en-lone], the observed aqueous solubility [1] is listed as “about 0.013 mg/ml”.
For `C=CC(=O)N1CCCC(n2nc(-c3ccc(Oc4ccccc4)cc3)c3c(N)ncnc32)C1.C=CC(=O)N1CCCC(n2nc(-c3ccc(Oc4ccccc4)cc3)c3c(N)ncnc32)C1.O=C(O)C=CC(=O)O` (stereo not shown) [ibrutinib:fumaric acid], the “XRPD pattern after stress-tests” value [2] was “No change was observed in the XRPD pattern”.
In the case of `C=CC(=O)N1CCC[C@@H](n2nc(-c3ccc(Oc4ccccc4)cc3)c3c(N)ncnc32)C1.C=CC(=O)N1CCC[C@@H](n2nc(-c3ccc(Oc4ccccc4)cc3)c3c(N)ncnc32)C1.O=C(O)CCC(=O)O` [ibrutinib:succinic acid], the “contact angle θ” value [3] is reported as “incapable of measurement*”.
With `C=CC(=O)N1CCC[C@@H](n2nc(-c3ccc(Oc4ccccc4)cc3)c3c(N)ncnc32)C1` [Ibrutinib Form E, 1-[(3R)-3[4-Amino-3-(4-phenoxyphenyl)-1H-pyrazolo[3,4-d]pyrimidin-1-yl]piperidin-1-yl]prop-2-en-lone] the “solid form after storage (XRPD, FIG. 15)” value [4] was “transformed into ibrutinib Form A”.

Reference: patent US10669275B2 (priority 2015, dated 2020)
